US20100184773A1, “Germline Polymorphisms in the Angiogenic Pathway Predict Tumor Recurrence in Cancer Therapy” (priority 2007, published 2010)

System: Stage III Colon Cancer
Experiment: Time to tumor recurrence in patients with stage III colon cancer, by type of adjuvant therapy (retrospective, log-rank test)
Format: in vivo, human
Description: Methods and Patients: One hundred and twenty five patients with stage III colon cancer who were treated with 5-FU-based adjuvant chemotherapy at the University of Southern California/Norris Comprehensive Cancer Center (USC/NCCC) or the Los Angeles County/University of Southern California Medical Center (LAC/USCMC), between 1992 and 2007, were eligible for the present study. This study was conducted at the USC/NCCC and approved by the Institutional Review Board (IRB) of the University of Southern California for Medical Sciences. Patient data were collected retrospectively through chart review. Informed consent was signed by all patients involved in the study.
Statistical analysis: The primary endpoint in this study was time to tumor recurrence (TTR) in stage III colon cancer patients, which was defined as the time from the date of diagnosis of stage III colon cancer to the date of first recurrence, […], or until last contact if the patient was free of any tumor recurrence at the time of last contact. If a patient had not recurred, then TTR was censored at the time of death or at the last follow-up. The associations of time to tumor recurrence with patient's clinico-pathologic characteristics (age, sex, race, tumor grade, T-stage, N-stage and type of chemotherapy) were assessed using univariate survival analyses (log-rank test).
The association between each polymorphism and time to recurrence was examined using Kaplan-Meier curves and log-rank test. The distributions of polymorphisms across demographic characteristics were examined using Fisher's exact test. In the univariate survival analysis, the Pike estimate of relative risk (RR) and its associated 95% confidence interval (95% CI) was based on the log-rank test.

In the case of `O=c1[nH]cc(F)c(=O)[nH]1` [5-FU, 5-Fluorouracil], the “Median time to recurrence (TTR)” value (patients with stage III colon cancer, by adjuvant therapy, '+' = estimates were not reached) is reported as 3.9 yrs, the “Probability ± SE of 3-year recurrence” value (stage III colon cancer, by adjuvant therapy, Greenwood SE) is reported as 0.47 ± 0.06 and the Relative risk (tumor recurrence, stage III colon cancer, reference = 5-FU group, Pike estimate based on log-rank test) is reported as 1.
